Reference: PMC7031696 (Cell chemical biology, 2019)
Read-outs that look alike come from different tables or passages of the source.

Key:
[1] = test system: 3D7-MR4 trophozoite parasite-infected RBCs; assay: Metabolomic profiling (hydrophilic metabolite changes, UHPLC-MS); assay type: cell-based, Plasmodium falciparum
[2] = test system: asynchronous 3D7-A10 parasite cultures; assay: Standard 72-h exposure asexual blood stage susceptibility assay (IC50^72h); assay type: cell-based, Plasmodium falciparum; settings: Plasmodium falciparum, 3D7, 72 h, read-out: Overall (72hr assay) Mean IC50 (IC50^72h)
[3] = test system: Plasmodium falciparum 3D7-A10 parasites; assay: Stage specificity assay (8-h exposure of synchronized stages, IC50^8h); assay type: cell-based; settings: for IC50: Plasmodium falciparum

FC(F)(F)c1cccc(Nc2nc3ccccc3nc2Nc2cccc(C(F)(F)F)c2)c1 [MMV665794]
Log2(fold changes) 3-phosphoglycerate ([1]; metabolite 3-phosphoglycerate, log2 fold change): 0.1475 | Log2(fold changes) 4-Pyridoxic acid ([1]; metabolite 4-Pyridoxic acid, log2 fold change): 0.1397 | Log2(fold changes) 4-aminobutyrate ([1]; metabolite 4-aminobutyrate, log2 fold change): -0.1443 | Log2(fold changes) 4-phosphopantetheine ([1]; metabolite 4-phosphopantetheine, log2 fold change): 0.0000 | Log2(fold changes) 4-phosphopantothenate ([1]; metabolite 4-phosphopantothenate, log2 fold change): 0.0000 | Log2(fold changes) 5-aminopentanoic acid ([1]; metabolite 5-aminopentanoic acid, log2 fold change): 0.0000 | Log2(fold changes) 5-methyl-THF ([1]; metabolite 5-methyl-THF, log2 fold change): 0.0000 | Log2(fold changes) 5-phosphoribosyl-1-pyrophosphate ([1]; metabolite 5-phosphoribosyl-1-pyrophosphate, log2 fold change): 0.0000 | Log2(fold changes) 6-phospho-D-gluconate ([1]; metabolite 6-phospho-D-gluconate, log2 fold change): 0.0648 | Log2(fold change) HVDD ([1]; metabolite HVDD): 0.0000 | Log2(fold change) Hydroxyisocaproic acid ([1]; metabolite Hydroxyisocaproic acid): 0.0000 | Log2(fold change) IDP ([1]; metabolite IDP): 0.0000 | Log2(fold change) IMP ([1]; metabolite IMP): -0.1724 | Log2(fold change) Inositol ([1]; metabolite Inositol): 0.4519 | Log2(fold change) Isopentyl-PP ([1]; metabolite Isopentyl-PP): 0.0000 | Log2(fold change) L-arginino-succinate ([1]; metabolite L-arginino-succinate): 0.0000 | Log2(fold change) LD ([1]; metabolite LD): 0.2876 | Log2(fold change) Myristoyl/tetradecanoyl-CoA ([1]; metabolite Myristoyl/tetradecanoyl-CoA): 0.0000 | Log2(fold change) N-Acetyl-L-alanine ([1]; metabolite N-Acetyl-L-alanine): -0.5892 | Log2(fold change) N-acetyl-L-ornithine ([1]; metabolite N-acetyl-L-ornithine): -0.6613 | Log2(fold change) N-acetyl-glucosamine-1/6-phosphate ([1]; metabolite N-acetyl-glucosamine-1/6-phosphate): 0.0457 | Log2(fold change) N-acetyl-glutamate ([1]; metabolite N-acetyl-glutamate): 0.0432 | Log2(fold change) N-acetyl-glutamine ([1]; metabolite N-acetyl-glutamine): -0.6444 | Log2(fold change) N-carbamoyl-L-aspartate ([1]; metabolite N-carbamoyl-L-aspartate): 0.7842 | Log2(fold change) NAD+ ([1]; metabolite NAD+): -0.0023 | Log2(fold change) NADH ([1]; metabolite NADH): 0.0000 | Log2(fold change) NADP+ ([1]; metabolite NADP+): 0.2420 | Log2(fold change) NADPH ([1]; metabolite NADPH): 0.2872 | Log2(fold change) O-acetyl-L-serine ([1]; metabolite O-acetyl-L-serine): 0.0000 | Log2(fold change) Octoluse 8/1P ([1]; metabolite Octoluse 8/1P): -0.0525 | Log2(fold change) Octoluse Bisphosphate ([1]; metabolite Octoluse Bisphosphate): -0.0227 | Log2(fold change) PD ([1]; metabolite PD): -1.6060 | Log2(fold change) PE ([1]; metabolite PE): -1.2530 | Log2(fold change) PEE ([1]; metabolite PEE): -0.7348 | Log2(fold change) PEEK ([1]; metabolite PEEK): -2.1636 | Log2(fold change) PVNF ([1]; metabolite PVNF): -0.9738 | Log2(fold change) Pyroglutamic acid ([1]; metabolite Pyroglutamic acid): -0.1549 | Log2(fold change) Pyrophosphate ([1]; metabolite Pyrophosphate): 0.0000 | Log2(fold change) Ribose-5-phosphate ([1]; metabolite Ribose-5-phosphate): 0.0000 | Log2(fold change) S-adenosyl-L-homocysteine ([1]; metabolite S-adenosyl-L-homocysteine): -0.1116 | Log2(fold change) S-adenosyl-L-methioninamine ([1]; metabolite S-adenosyl-L-methioninamine): 0.0000 | Log2(fold change) S-adenosyl-L-methionine ([1]; metabolite S-adenosyl-L-methionine): 0.0000 | Log2(fold change) S-methyl-5'-thioadenosine ([1]; metabolite S-methyl-5'-thioadenosine): -0.0770 | Log2(fold change) SD ([1]; metabolite SD): -0.6103 | Log2(fold change) SDL ([1]; metabolite SDL): 0.0000 | Log2(fold change) SID ([1]; metabolite SID): 0.0000 | Log2(fold change) Sedoheptulose bisphosphate ([1]; metabolite Sedoheptulose bisphosphate): 0.0000 | Log2(fold change) Thiamine pyrophosphate ([1]; metabolite Thiamine pyrophosphate): 0.0000 | Log2(fold changes) UDP-D-glucose ([1]; metabolite UDP-D-glucose, log2 fold change): 0.0057 | Log2(fold changes) UDP-D-glucuronate ([1]; metabolite UDP-D-glucuronate, log2 fold change): 0.0333 | Log2(fold changes) UDP-N-acetyl-glucosamine ([1]; metabolite UDP-N-acetyl-glucosamine, log2 fold change): -0.0841 | Log2(fold changes) UDP ([1]; metabolite UDP, log2 fold change): -0.2966 | Log2(fold changes) UMP ([1]; metabolite UMP, log2 fold change): -0.1315 | Log2(fold changes) UTP ([1]; metabolite UTP, log2 fold change): -0.1979 | Log2(fold change) hydroxyphenylpyruvate ([1]; metabolite hydroxyphenylpyruvate): 0.0000 | Log2(fold change) hydroxyproline/Aminolevulinate ([1]; metabolite hydroxyproline/Aminolevulinate): 0.0000 | Log2(fold change) hypoxanthine ([1]; metabolite hypoxanthine): 0.0564 | Log2(fold change) indole ([1]; metabolite indole): 0.0000 | Log2(fold change) inosine ([1]; metabolite inosine): -0.1857 | Log2(fold change) isoleucine ([1]; metabolite isoleucine): 0.0000 | Log2(fold change) lactate ([1]; metabolite lactate): -0.1258 | Log2(fold change) leucine ([1]; metabolite leucine): 0.0000 | Log2(fold change) lysine ([1]; metabolite lysine): -1.0057 | Log2(fold change) malate ([1]; metabolite malate): -0.5114 | Log2(fold change) maleic acid ([1]; metabolite maleic acid): 0.0000 | Log2(fold change) methionine ([1]; metabolite methionine): 0.1032 | Log2(fold change) myo-inositol ([1]; metabolite myo-inositol): -0.1088 | Log2(fold change) nicotinamide mononucleotide ([1]; metabolite nicotinamide mononucleotide): 0.0000 | Log2(fold change) nicotinate ([1]; metabolite nicotinate): -0.0014 | Log2(fold change) ornithine ([1]; metabolite ornithine): -0.5221 | Log2(fold change) orotate ([1]; metabolite orotate): -0.1200 | Log2(fold change) orotidine-5'-phosphate ([1]; metabolite orotidine-5'-phosphate): -0.1502 | Log2(fold change) oxaloacetate ([1]; metabolite oxaloacetate): 0.0000 | Log2(fold change) p-aminobenzoate ([1]; metabolite p-aminobenzoate): 0.0000 | Log2(fold change) p-hydroxybenzoate ([1]; metabolite p-hydroxybenzoate): 0.0000 | Log2(fold change) pantothenate ([1]; metabolite pantothenate): -0.3232 | Log2(fold change) phenylalanine ([1]; metabolite phenylalanine): -0.3048 | Log2(fold change) phenylpyruvate ([1]; metabolite phenylpyruvate): 0.0000 | Log2(fold change) phosphoenolpyruvate ([1]; metabolite phosphoenolpyruvate): 0.2889 | Log2(fold change) prephenate ([1]; metabolite prephenate): 0.0000 | Log2(fold change) proline ([1]; metabolite proline): -0.1760 | Log2(fold change) pyridoxine ([1]; metabolite pyridoxine): -0.0343 | Log2(fold change) pyruvate ([1]; metabolite pyruvate): -0.4249 | Log2(fold change) riboflavin ([1]; metabolite riboflavin): 0.0000 | Log2(fold change) ribose ([1]; metabolite ribose): 0.0000 | Log2(fold change) ribose-phosphate ([1]; metabolite ribose-phosphate): -0.1845 | Log2(fold change) ribulose-5-phosphate ([1]; metabolite ribulose-5-phosphate): 0.0000 | Log2(fold change) serine ([1]; metabolite serine): -0.0943 | Log2(fold change) sn-glycerol-3-phosphate ([1]; metabolite sn-glycerol-3-phosphate): 0.1547 | Log2(fold change) succinate/Methylmalonic acid ([1]; metabolite succinate/Methylmalonic acid): 0.2773 | Log2(fold change) succinyl-CoA/methylmalonyl-CoA ([1]; metabolite succinyl-CoA/methylmalonyl-CoA): 0.0000 | Log2(fold change) taurine ([1]; metabolite taurine): 0.4682 | Log2(fold change) thiamine ([1]; metabolite thiamine): -0.4163 | Log2(fold change) threonine/homoserine ([1]; metabolite threonine/homoserine): -0.3057 | Log2(fold change) thymidine ([1]; metabolite thymidine): 0.0000 | Log2(fold changes) thymine ([1]; metabolite thymine, log2 fold change): 0.0000 | Log2(fold changes) trehalose-6-Phosphate ([1]; metabolite trehalose-6-Phosphate, log2 fold change): 0.0000 | Log2(fold changes) tryptophan ([1]; metabolite tryptophan, log2 fold change): -0.2265 | Log2(fold changes) tyrosine ([1]; metabolite tyrosine, log2 fold change): -0.1308 | Log2(fold changes) uridine ([1]; metabolite uridine, log2 fold change): -0.0071 | IC50 [2]: 91.3 nM | Ratio lowest IC50 8hr/IC50 72hr ([3]; 3D7-A10): 1.8 | IC50 ([3]; 3D7, read-out: Early rings Mean IC50 (IC50^8h), 8-h exposure 0–8 hr, 3D7-A10, survival at 60 h): 369 nM | IC50 ([3]; 3D7, read-out: Early trophozoites Mean IC50 (IC50^8h), 8-h exposure 16–24 hr, 3D7-A10, survival at 60 h): 210 nM | IC50 ([3]; 3D7, read-out: Late rings Mean IC50 (IC50^8h), 8-h exposure 8–16 hr, 3D7-A10, survival at 60 h): 590 nM | IC50 ([3]; 3D7, read-out: Late trophozoites Mean IC50 (IC50^8h), 8-h exposure 24–32 hr, 3D7-A10, survival at 60 h): 165 nM | IC50 ([3]; 3D7, read-out: Schizonts Mean IC50 (IC50^8h), 8-h exposure 32–40 hr, 3D7-A10, survival at 60 h): 203 nM
